From patent US11028088B2, “Modulators of BTK proteolysis and methods of use” (Yale University, priority 2018, dated 2021) come the findings set out here.

Where a name gives a salt, the structure may show the parent alone.

The target of this experiment is C481S BTK (Homo sapiens, UniProt Q06187, C481S). In words: In vitro kinase inhibition, recombinant C481S BTK, 10 μM ATP.
Chain of C481S BTK (Q06187 whole entry C481S): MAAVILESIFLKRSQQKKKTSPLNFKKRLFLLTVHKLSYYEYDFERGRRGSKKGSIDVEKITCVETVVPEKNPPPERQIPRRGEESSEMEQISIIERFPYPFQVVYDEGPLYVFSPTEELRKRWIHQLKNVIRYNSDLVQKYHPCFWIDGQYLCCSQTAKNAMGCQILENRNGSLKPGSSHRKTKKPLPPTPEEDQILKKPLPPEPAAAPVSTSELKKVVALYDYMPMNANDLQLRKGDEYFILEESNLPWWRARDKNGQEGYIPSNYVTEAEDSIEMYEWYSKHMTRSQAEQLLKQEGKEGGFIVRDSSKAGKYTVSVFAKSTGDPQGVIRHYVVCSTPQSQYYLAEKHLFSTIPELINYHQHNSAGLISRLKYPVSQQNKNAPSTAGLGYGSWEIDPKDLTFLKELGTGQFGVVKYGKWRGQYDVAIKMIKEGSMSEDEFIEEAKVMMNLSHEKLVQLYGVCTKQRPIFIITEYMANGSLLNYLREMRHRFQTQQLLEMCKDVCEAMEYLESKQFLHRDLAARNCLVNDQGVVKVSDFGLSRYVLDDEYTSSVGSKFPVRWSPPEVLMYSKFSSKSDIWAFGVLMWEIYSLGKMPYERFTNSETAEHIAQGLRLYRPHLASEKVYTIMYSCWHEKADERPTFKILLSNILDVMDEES

For the molecule `Nc1ncnc2c1c(-c1ccc(Oc3ccccc3)cc1)nn2C1CCNCC1` [compound 1, 3-(4-phenoxyphenyl)-1-(piperidin-4-yl)-1H-pyrazolo[3,4-d]pyrimidin-4-amine hydrochloride, reference compound], the “inhibition potency against C481S mutant BTK” value is on record as “retained inhibition potency”.
